Data published in patent US6737383B1, “Herbicidal oxadiazolidines” (priority 1999, dated 2004).

Experiments:
[1] = system: corn; experiment: Test B pre/postemergence corn; format: in vivo, Zea mays
Summary of the method: (§1)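 Response is a visual 0-to-10 score relative to untreated plants, where 0 means no effect and 10 means complete control, taken twelve to sixteen days after application. Treatments went onto soil at planting and onto foliage of 1- to 4-leaf plants, using a surfactant-containing non-phytotoxic solvent.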

[2] = system: pigweed; experiment: Test B pre/postemergence pigweed; format: in vivo, Amaranthus retroflexus
Summary of the method: as §1

[3] = system: duck salad; experiment: Test B flood test duck salad; format: in vivo, Heteranthera limosa
Summary of the method: (§2)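 Plants were grown to the 2-leaf stage before treatment with test chemical, then held in a greenhouse for twelve to sixteen days. Injury was visually rated against untreated controls on a 0–10 scale, where 0 is no effect and 10 is complete control.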

[4] = system: surinam grass; experiment: Test B pre/postemergence surinam grass; format: in vivo, Brachiaria decumbens
Summary of the method: as §1

[5] = system: purple nutsedge; experiment: Test B pre/postemergence purple nutsedge; format: in vivo, Cyperus rotundus
Summary of the method: as §1

[6] = system: soybean; experiment: Test B pre/postemergence soybean; format: in vivo, Glycine max
Summary of the method: as §1

[7] = system: rice; experiment: Test B flood test rice; format: in vivo, Oryza sativa
Summary of the method: as §2

[8] = system: smallflower flatsedge; experiment: Test B flood test smallflower flatsedge; format: in vivo, Cyperus difformis
Summary of the method: as §2

[9] = system: blackgrass; experiment: Test B pre/postemergence blackgrass; format: in vivo, Alopecurus myosuroides
Summary of the method: as §1

[10] = system: bedstraw; experiment: Test B pre/postemergence bedstraw; format: in vivo, Galium aparine
Summary of the method: as §1

[11] = system: crabgrass; experiment: Test B pre/postemergence crabgrass; format: in vivo, Digitaria sanguinalis
Summary of the method: as §1

[12] = system: morningglory; experiment: Test B pre/postemergence morningglory; format: in vivo, Ipomoea hederacea
Summary of the method: as §1

[13] = system: sugar beet; experiment: Test B pre/postemergence sugar beet; format: in vivo, Beta vulgaris
Summary of the method: as §1

[14] = system: cocklebur; experiment: Test B pre/postemergence cocklebur; format: in vivo, Xanthium strumarium
Summary of the method: as §1

[15] = system: wild oat; experiment: Test B pre/postemergence wild oat; format: in vivo, Avena fatua
Summary of the method: as §1

[16] = system: giant foxtail; experiment: Test B pre/postemergence giant foxtail; format: in vivo, Setaria faberii
Summary of the method: as §1

[17] = Preemergence, Rate 62 g/ha, scale of 0 to 10 where 0 is no effect and 10 is complete control
[18] = Preemergence, Rate 250 g/ha, scale of 0 to 10 where 0 is no effect and 10 is complete control
[19] = Preemergence, Rate 500 g/ha, scale of 0 to 10 where 0 is no effect and 10 is complete control
[20] = Rate 62 g/ha, Postemergence, scale of 0 to 10 where 0 is no effect and 10 is complete control
[21] = Rate 125 g/ha, Postemergence, scale 0 to 10
[22] = Rate 125 g/ha, Preemergence, scale of 0 to 10 where 0 is no effect and 10 is complete control
[23] = Rate 500 g/ha, Postemergence, scale 0 to 10
[24] = Rate 62 g/ha, headed Pre-emergence (flood test species), scale 0 to 10 (0 no effect, 10 complete control)
[25] = Rate 125 g/ha, Pre-emergence, flood test species, scale 0 to 10 where 0 is no effect and 10 is complete control
[26] = Rate 250 g/ha, Pre-emergence, flood-test species, scale 0 to 10, 0 is no effect, 10 is complete control
[27] = Rate 500 g/ha, Pre-emergence, flood test species, scale 0 to 10 (0 no effect, 10 complete control)

COC(=O)Cn1c(=O)on(C(=O)N(c2ccc(F)cc2)C(C)C)c1=O [Compound 215] was tested, and the “Corn plant response rating” value [1, 17] was 0, the “Corn plant response rating” value [1, 18] was 0 and the “Plant response rating, Corn” value [1, 19] was 2. For the same molecule, the “Corn plant response rating” value [1, 20] was 0, the “Corn plant response rating” value [1, 21] was 0 and the “Corn plant response rating” value [1, 22] was 0. For the same molecule, the “Plant response rating (0 to 10; 0 is no effect, 10 is complete control), Corn” value ([1]; Rate 250 g/ha, Postemergence) was 0, the “Corn plant response rating” value [1, 23] was 0 and the “Redroot pigweed plant response rating” value [2, 17] was 4. The “Redroot pigweed plant response rating” value [2, 18] was 5, the “Plant response rating, Redroot pigweed” value [2, 19] was 6 and the “Redroot pigweed plant response rating” value [2, 20] was 0. For the same molecule, the “Redroot pigweed plant response rating” value [2, 21] was 0, the “Redroot pigweed plant response rating” value [2, 22] was 4 and the “Plant response rating (0 to 10; 0 is no effect, 10 is complete control), Redroot pigweed” value ([2]; Rate 250 g/ha, Postemergence) was 6. For the same molecule, the “Redroot pigweed plant response rating” value [2, 23] was 6, the “Ducksalad plant response rating” value [3, 24] was 0 and the “Ducksalad plant response rating” value [3, 25] was 0. For the same molecule, the “Ducksalad plant response rating” value [3, 26] was 0, the “Ducksalad plant response rating” value [3, 27] was 0 and the “B. signalgrass plant response rating” value [4, 17] was 0. For the same molecule, the “B. signalgrass plant response rating” value ([4]; Preemergence, Rate 250 g/ha, scale 0 to 10, 0 is no effect, 10 is complete control) was 2, the “Plant response rating, B. signalgrass” value [4, 19] was 2 and the “B. signalgrass plant response rating” value [4, 20] was 0. For the same molecule, the “B. signalgrass plant response rating” value ([4]; Rate 125 g/ha, Postemergence, scale 0 (no effect) to 10 (complete control)) was 0, the “B. signalgrass plant response rating” value [4, 22] was 0 and the “Plant response rating (0 to 10; 0 is no effect, 10 is complete control), B. signalgrass” value ([4]; Rate 250 g/ha, Postemergence) was 3. For the same molecule, the “B. signalgrass plant response rating” value ([4]; Rate 500 g/ha, Postemergence, scale 0 to 10, 0 no effect, 10 complete control) was 3, the “Nutsedge plant response rating” value [5, 17] was 0 and the “Nutsedge plant response rating” value [5, 18] was 0. For the same molecule, the “Plant response rating, Nutsedge” value [5, 19] was 0, the “Nutsedge plant response rating” value [5, 20] was 0 and the “Nutsedge plant response rating” value [5, 21] was 0. For the same molecule, the “Nutsedge plant response rating” value [5, 22] was 0, the “Plant response rating (0 to 10; 0 is no effect, 10 is complete control), Nutsedge” value ([5]; Rate 250 g/ha, Postemergence) was 0 and the “Nutsedge plant response rating” value [5, 23] was 0. The “Soybean plant response rating” value [6, 17] was 0, the “Soybean plant response rating” value [6, 18] was 0 and the “Plant response rating, Soybean” value [6, 19] was 0. The “Soybean plant response rating” value [6, 20] was 0, the “Soybean plant response rating” value [6, 21] was 1 and the “Soybean plant response rating” value [6, 22] was 0. For the same molecule, the “Plant response rating (0 to 10; 0 is no effect, 10 is complete control), Soybean” value ([6]; Rate 250 g/ha, Postemergence) was 1, the “Soybean plant response rating” value [6, 23] was 1 and the “Rice plant response rating” value [7, 24] was 0. The “Rice plant response rating” value [7, 25] was 0, the “Rice plant response rating” value [7, 26] was 0 and the “Rice plant response rating” value [7, 27] was 0. The “S. Flatsedge plant response rating” value [8, 24] was 0, the “S. Flatsedge plant response rating” value [8, 25] was 0 and the “S. Flatsedge plant response rating” value [8, 26] was 0. The “S. Flatsedge plant response rating” value [8, 27] was 0, the “Blackgrass plant response rating” value [9, 17] was 4 and the “Plant response rating, Blackgrass” value [9, 19] was 6. For the same molecule, the “Blackgrass plant response rating” value [9, 20] was 0, the “Blackgrass plant response rating” value [9, 21] was 0 and the “Blackgrass plant response rating” value [9, 22] was 6. The “Plant response rating (0 to 10; 0 is no effect, 10 is complete control), Blackgrass” value ([9]; Rate 250 g/ha, Postemergence) was 4, the “Blackgrass plant response rating” value [9, 23] was 5 and the “Bedstraw plant response rating” value [10, 17] was 0. The “Bedstraw plant response rating” value [10, 18] was 0, the “Plant response rating, Bedstraw” value [10, 19] was 0 and the “Bedstraw plant response rating” value [10, 20] was 0. The “Bedstraw plant response rating” value [10, 21] was 0, the “Bedstraw plant response rating” value [10, 22] was 0 and the “Plant response rating (0 to 10; 0 is no effect, 10 is complete control), Bedstraw” value ([10]; Rate 250 g/ha, Postemergence) was 6. For the same molecule, the “Bedstraw plant response rating” value [10, 23] was 8, the “Crabgrass plant response rating” value [11, 17] was 3 and the “Crabgrass plant response rating” value [11, 18] was 4. The “Plant response rating, Crabgrass” value [11, 19] was 4, the “Crabgrass plant response rating” value [11, 20] was 0 and the “Crabgrass plant response rating” value [11, 21] was 0. For the same molecule, the “Crabgrass plant response rating” value [11, 22] was 4, the “Plant response rating (0 to 10; 0 is no effect, 10 is complete control), Crabgrass” value ([11]; Rate 250 g/ha, Postemergence) was 2 and the “Crabgrass plant response rating” value [11, 23] was 2. For the same molecule, the “Morningglory plant response rating” value [12, 17] was 0, the “Morningglory plant response rating” value [12, 18] was 0 and the “Plant response rating, Morningglory” value [12, 19] was 0. For the same molecule, the “Morningglory plant response rating” value [12, 20] was 0, the “Morningglory plant response rating” value [12, 21] was 2 and the “Morningglory plant response rating” value [12, 22] was 0. For the same molecule, the “Plant response rating (0 to 10; 0 is no effect, 10 is complete control), Morningglory” value ([12]; Rate 250 g/ha, Postemergence) was 3, the “Morningglory plant response rating” value [12, 23] was 3 and the “Sugarbeets plant response rating” value [13, 17] was 0. For the same molecule, the “Sugarbeets plant response rating” value [13, 18] was 2, the “Plant response rating, Sugarbeets” value [13, 19] was 7 and the “Sugarbeets plant response rating” value [13, 20] was 0. For the same molecule, the “Sugarbeets plant response rating” value [13, 21] was 0, the “Sugarbeets plant response rating” value [13, 22] was 2 and the “Plant response rating (0 to 10; 0 is no effect, 10 is complete control), Sugarbeets” value ([13]; Rate 250 g/ha, Postemergence) was 0. The “Sugarbeets plant response rating” value [13, 23] was 0, the “Cocklebur plant response rating” value [14, 17] was 0 and the “Cocklebur plant response rating” value [14, 18] was 0. For the same molecule, the “Plant response rating, Cocklebur” value [14, 19] was 0, the “Cocklebur plant response rating” value [14, 20] was 0 and the “Cocklebur plant response rating” value [14, 21] was 0. For the same molecule, the “Cocklebur plant response rating” value [14, 22] was 0, the “Plant response rating (0 to 10; 0 is no effect, 10 is complete control), Cocklebur” value ([14]; Rate 250 g/ha, Postemergence) was 0 and the “Cocklebur plant response rating” value [14, 23] was 0. The “Wild oats plant response rating” value [15, 17] was 0, the “Wild oats plant response rating” value [15, 18] was 2 and the “Plant response rating, Wild oats” value [15, 19] was 2. The “Wild oats plant response rating” value [15, 20] was 0, the “Wild oats plant response rating” value [15, 21] was 0 and the “Wild oats plant response rating” value [15, 22] was 0. The “Plant response rating (0 to 10; 0 is no effect, 10 is complete control), Wild oats” value ([15]; Rate 250 g/ha, Postemergence) was 2, the “Giant foxtail plant response rating” value [16, 17] was 3 and the “Giant foxtail plant response rating” value [16, 18] was 3. The “Plant response rating, Giant foxtail” value [16, 19] was 5, the “Giant foxtail plant response rating” value [16, 20] was 0 and the “Giant foxtail plant response rating” value [16, 21] was 0. For the same molecule, the “Giant foxtail plant response rating” value [16, 22] was 3, the “Plant response rating (0 to 10; 0 is no effect, 10 is complete control), Giant foxtail” value ([16]; Rate 250 g/ha, Postemergence) was 3 and the “Giant foxtail plant response rating” value [16, 23] was 5.
